# Changes are numbered by the printed parent chain.
# Tests used:
# [1] = molecular target: T1, 3CAM hamster α1b-adrenoceptor/GFP fusion construct (Mesocricetus auratus, UniProt P18841, A293L/K290H/R288K); assay: Confocal microscopy, 3CAM α1b-adrenoceptor-GFP; format: cell-based; details: 1 μM for 24h
# T1 construct: expressed in transfected cells
# T1 sequence (P18841 1-515 R288K/K290H/A293L): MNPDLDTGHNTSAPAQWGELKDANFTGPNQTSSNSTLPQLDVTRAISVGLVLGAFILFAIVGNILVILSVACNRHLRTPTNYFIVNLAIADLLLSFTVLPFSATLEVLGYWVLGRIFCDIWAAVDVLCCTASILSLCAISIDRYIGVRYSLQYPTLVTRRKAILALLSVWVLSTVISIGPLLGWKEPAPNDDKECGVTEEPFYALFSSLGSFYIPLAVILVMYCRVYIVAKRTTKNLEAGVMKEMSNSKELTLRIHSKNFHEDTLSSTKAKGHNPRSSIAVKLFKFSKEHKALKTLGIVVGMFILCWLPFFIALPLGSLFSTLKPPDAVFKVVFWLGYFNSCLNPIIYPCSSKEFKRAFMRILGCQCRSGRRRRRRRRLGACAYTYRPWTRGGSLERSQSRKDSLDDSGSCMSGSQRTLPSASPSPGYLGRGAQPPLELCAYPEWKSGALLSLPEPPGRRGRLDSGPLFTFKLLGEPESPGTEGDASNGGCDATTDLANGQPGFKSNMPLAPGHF
# Protocol: (§1) Cells expressing either the 3CAM (10A) or wild type (10B) hamster α1b-adrenoceptor grown on glass cover slips were treated with vehicle (a), phentolamine (b), WB4101 (c) or HV723 (d) (all at 1 μM) for 24h. The cells were then visualised on a confocal microscope.
# (§2) The images were manipulated with Zeiss LSM or MetaMorph software. Two different protocols for preparation of cells were used. When examining the time course of internalisation and recycling live cells were used. Cells were grown on glass coverslips and mounted on the imaging chamber. Cells were maintained in KRH buffer (see below) and temperature was maintained at 37° C. In other studies fixed cells were used. Cells on glass coverslips were washed with PBS and fixed for 20 min at room temperature using 4% paraformaldehyde in PBS/5% sucrose pH 7.2. After one wash with PBS coverslips were mounted on microscope slides with 40% glycerol in PBS.
# (§3) In the first step the coding sequence of a modified form of GFP was modified by polymerase chain reaction (PCR) amplification. Using the amino-terminal primer 5′-[…]-3 the initiating Met of GFP was removed and both a Kpn I restriction site (underlined) and a 2-amino acid spacer (Gly-Asn) were introduced. Using the carboxy-terminal primer 5-[…]-3′ an Xba I restriction site (underlined) was introduced downstream of the stop codon of GFP. The amplified fragment of GFP digested with Kpn I and Xba I was subcloned into similarly digested pcDNA3 expression vector (Invitrogen). To obtain the α1B-adrenoceptor-GFP fusion proteins, the coding sequence of each form of the α1B-adrenoceptor was amplified by PCR. Using the amino-terminal primer 5′-[…]-3′, a Kpn I restriction site (underlined) was introduced upstream of the initiator Met. […] Finally, the GFP construct in pcDNA3 was digested with Kpn I and ligated together with the PCR product of the α1B-adrenoceptor amplification also digested with Kpn I. The open reading frames so produced represent the coding sequence of either the wild type or 3CAM α1B-adrenoceptor-GFPs. […]
# [2] = molecular target: T2, wild type hamster α1b-adrenoceptor/GFP fusion construct (Mesocricetus auratus, UniProt P18841); assay: Confocal microscopy, wild type α1b-adrenoceptor-GFP; format: cell-based; details: 1 μM for 24h
# T2 construct: expressed in transfected cells
# T2 sequence (P18841 1-515): T1 sequence (P18841 1-515 R288K/K290H/A293L) with K288R, H290K, L293A
# Protocol: as §1, §2, §3
# [3] = molecular target: T3, CAM α1b-adrenoceptor/GFP fusion protein (Mesocricetus auratus, UniProt P18841, A293L/K290H/R288K); assay: Plate fluorimetry, CAM α1b-adrenoceptor/GFP in HEK 293 cells; format: cell-based, hamster; details: 22 hrs treatment, range in brackets, read-out: EC50 of up-regulation of fluorescence of CAM α1b-adrenoceptor/GFP
# T3 construct: expressed in transfected cells
# T3 sequence (P18841 1-515 R288K/K290H/A293L): T1 sequence (P18841 1-515 R288K/K290H/A293L)
# Protocol: These cell lines were used to investigate ligand up-regulation of the CAM α1b-adrenoceptor/GFP fusion protein. Fusion protein upregulation was measured according to a gain in total cellular fluorescence in a plate based fluorimeter.
# For experiments cells were seeded into black 96 well view plates (Costar) on the day before assay. […] Cells were incubated at 37° C. for 22 hours. After incubation fluorescence was detected using a Tecan Spectrafluor plus fluorimeter. To control for plate and media autofluorescence results were calculated by subtracting a blank plate reading from the fluorescence values obtained in drug treated cells.
# The time course of ligand up-regulation of the CAM α1b-adrenoceptor/GFP fusion protein was also investigated. In this study cells were seeded and treated with drug as previously described but fluorescence in the blank plate and the cell plates were read at various time points between 2–31 hours after drug addition.
# [4] = molecular target: T4, CAM β2-adrenoceptor-GFP (Homo sapiens, UniProt P07550, H269K/K267R/L266S/L272A); assay: Confocal microscopy of CAM β2-adrenoceptor-GFP in HEK293 cells; format: cell-based; details: 24h, 10^−5 M
# T4 construct: GFP (modified form, Zernicka-Goetz et al. 1997); expressed in transfected cells
# [5] = molecular target: T5, wild-type α1b-adrenoceptor (Mesocricetus auratus, UniProt P18841); assay: [3H]prazosin specific binding to membranes after ligand treatment, wild type; format: cell-based, hamster; details: FIG. 10C; [3H]prazosin 2 nM
# T5 construct: expressed in transfected cells
# T5 sequence (P18841 1-515): T1 sequence (P18841 1-515 R288K/K290H/A293L) with K288R, H290K, L293A
# Protocol: (§4) Equivalent studies were performed on plates of cells which were then washed and harvested. Membranes were prepared and the specific binding capacity of a single concentration (2 nM) of [^3H]prazosin was then assessed (FIG. 10C).
# (§5) HEK293 cells stably expressing each of the α1B-adrenoceptor-GFP fusion proteins were grown to confluence on 6 cm dishes. Prior to harvesting, cells were washed twice with 4 ml of ice-cold TE buffer (10 mM Tris, 0.1 mM EDTA pH 7.5) and then scraped into 1 ml of the same buffer. […] The suspension was centrifuged at 16000×g for 15 min and the resulting pellets resuspended in ice-cold TE buffer to final protein concentrations of 0.035–0.16 mg/ml.
# [6] = molecular target: T6, 3CAM α1b-adrenoceptor (Mesocricetus auratus, UniProt P18841, A293L/K290H/R288K); assay: [3H]prazosin specific binding to membranes after ligand treatment, 3CAM; format: cell-based, hamster; details: FIG. 10C; [3H]prazosin 2 nM
# T6 construct: expressed in transfected cells
# T6 sequence (P18841 1-515 R288K/K290H/A293L): T1 sequence (P18841 1-515 R288K/K290H/A293L)
# Protocol: as §4, §5
# [7] = molecular target: T7, PAR1mut/GFP fusion protein (Homo sapiens, UniProt P25116, A405G/G401A/L403A/M404G/N398G/Q402G/S399A/S400G/S406A/Y397A); assay: Agonist mediated down-regulation of PAR1mut/GFP in plate fluorimeter; format: cell-based; details: 4 hours incubation
# T7 construct: expressed in transfected cells
# T7 sequence (P25116 22-425 Y397A/N398G/S399A/S400G/G401A/Q402G/L403A/M404G/A405G/S406A): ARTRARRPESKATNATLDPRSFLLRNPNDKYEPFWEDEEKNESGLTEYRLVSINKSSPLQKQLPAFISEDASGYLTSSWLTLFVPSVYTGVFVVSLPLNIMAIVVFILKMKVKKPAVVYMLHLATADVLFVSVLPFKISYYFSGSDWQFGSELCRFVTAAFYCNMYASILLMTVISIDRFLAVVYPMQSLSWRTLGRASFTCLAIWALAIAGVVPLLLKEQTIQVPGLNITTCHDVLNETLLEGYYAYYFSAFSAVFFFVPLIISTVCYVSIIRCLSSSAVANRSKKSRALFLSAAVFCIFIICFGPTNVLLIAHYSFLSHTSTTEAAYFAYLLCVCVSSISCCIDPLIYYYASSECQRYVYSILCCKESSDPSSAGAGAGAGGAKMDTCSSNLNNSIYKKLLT
# Protocol: PAR1 receptor internalisation occurs through two mechanisms. […] This […] in the wild type receptor with the sequence […] (Shapiro and Coughlin, 1998). […] Cells were seeded into black 96 well view plates (Costar) the day before the experiment. The growth media was replaced with phenol red free DMEM/F12 (1:1) media containing 2 mM L-glutamine and either TRAP (10 μM-1 nM) or thrombin (1-0.0001 units/ml). The media also contained 0.5 mM Brilliant Black dye to absorb any media associated autofluorescence. […] To control for plate and media autofluorescence results were calculated by subtracting a blank plate reading from the fluorescence values obtained in drug treated cells.
upregulation of fluorescence of 3CAM α1b-adrenoceptor/GFP (confocal) [1],upregulation of wild type α1b-adrenoceptor/GFP (confocal) [2],EC50 [3],upregulation of fluorescence of CAM β2-adrenoceptor-GFP (confocal) [4],Compound,other results
Upregulation of the 3CAM,not wild type,417 nM,–,CCC(C#N)(CCCNCCOc1ccccc1OC)c1cc(OC)c(OC)c(OC)c1 (stereo not drawn) [HV 723],–
Upregulation of the 3CAM,not wild type,676 nM,–,COc1cccc(OC)c1OCCNCC1COc2ccccc2O1 (stereo not drawn) [WB 4101],–
–,–,–,Upregulation of fluoresence,CCCc1ccccc1OCC(O)CNC(C)C (stereo not drawn) [dihydroalprenolol],–
Upregulation of the 3CAM,not wild type,170 nM,–,Cc1ccc(N(CC2=NCCN2)c2cccc(O)c2)cc1 [phentolamine],–
–,–,–,not recorded,COc1cc2nc(N3CCN(C(=O)c4ccco4)CC3)nc(N)c2cc1OC [prazosin],effect on wild-type α1b-adrenoceptor level ([3H]prazosin specific binding) [5]: no effect; effect on 3CAM α1b-adrenoceptor level ([3H]prazosin specific binding) [6]: upregulation
–,–,–,not recorded,COC(=O)[C@@H]1[C@H]2C[C@H]3c4[nH]c5ccccc5c4CCN3C[C@@H]2CC[C@@H]1O [yohimbine],–
–,–,–,–,thrombin,maximum decrease (loss) in fluorescence of PAR1 mut/GFP construct [7]: about 5%
